The source of these data is patent publication US6426343B1, “Preparation and use of a specific GABA-Aα5 receptor ligand for treatment of Alzheimer's disease” (Merck Sharp & Dohme Ltd., priority 1995, dated 2002).

One series concerns Forebrain (all α). As to the kind of experiment: In vivo [3H]Ro 15-1788 binding, forebrain. Details: species or system mouse. To be noted: 30 min, mean±SEM, relative to vehicle. How it is done: The in vivo binding of [^3H]Ro 15-1788 to mouse brain was performed essentially as described by Goeders and Kuhar (1985). Male Swiss-Webster mice received a 0.9% NaCl solution containing 50 mCi/kg of [^3H]Ro 15-1788 (0.05 ml/10 g of body weight) via the tail vein. […] Each mouse brain was then rapidly removed, homogenised in 5.0 ml of 50 mM Tris HCl, 5.0 mM EDTA, pH 7.4 at 4° C. using an ultra-turrax homogeniser for 10 s at setting 5. In a separate series of experiments different brain regions, selected for their preferential expression of particular GABA subtypes were also examined. Binding of [^3H]Ro 15-1788 to cerebellum is almost exclusively α1-like (Quirk et al, 1994), whereas binding to spinal cord is indicative of binding to receptors containing α2 or α3-subtypes, α1, α4 and α5 are rare or absent in this region (Wisden et al, 1992). Brains were rapidly dissected into forebrain and cerebellum and the spinal cord was also removed. […] Volumes ([…]) of homogenate were filtered rapidly through GF/B filters, washed with 2×5.0 ml volumes of ice-cold buffer and the residual radioactivity was counted by liquid scintillation spectroscopy. […]

Series [1] has as its system rats. As to the kind of experiment: Watermaze experiment with SC pellet of FG 8094.
The next series has as its system GABAA receptors. As to the kind of experiment: In vivo [3H]Ro 15-1788 binding in whole mouse brain. As for the experimental part:
The in vivo binding of [^3H]Ro 15-1788 to mouse brain was performed essentially as described by Goeders and Kuhar (1985). Male Swiss-Webster mice received a 0.9% NaCl solution containing 50 mCi/kg of [^3H]Ro 15-1788 (0.05 ml/10 g of body weight) via the tail vein. […] Each mouse brain was then rapidly removed, homogenised in 5.0 ml of 50 mM Tris HCl, 5.0 mM EDTA, pH 7.4 at 4° C. using an ultra-turrax homogeniser for 10 s at setting 5. In a separate series of experiments different brain regions, selected for their preferential expression of particular GABA subtypes were also examined. Binding of [^3H]Ro 15-1788 to cerebellum is almost exclusively α1-like (Quirk et al, 1994), whereas binding to spinal cord is indicative of binding to receptors containing α2 or α3-subtypes, α1, α4 and α5 are rare or absent in this region (Wisden et al, 1992). Brains were rapidly dissected into forebrain and cerebellum and the spinal cord was also removed. […] Volumes ([…]) of homogenate were filtered rapidly through GF/B filters, washed with 2×5.0 ml volumes of ice-cold buffer and the residual radioactivity was counted by liquid scintillation spectroscopy.

The target of series [2] is α5 subtype containing GABA-A receptors (Rattus norvegicus, UniProt P18508+P19969). As to the kind of experiment: In vivo [3H]FG 8094 binding after pellet implantation. To be noted: SC pellet, after first four swim trials, [3H]FG 8094 IV.
Description: In a second experiment the vehicle or FG pellets were implanted into rats exactly as described above. However, after the first four swim trials the animals were injected (IV) with [^3H]FG 8094 and three mins later the brains of the animals were rapidly removed.
The next series addresses T1, α3β3γ2 (Homo sapiens, UniProt P18507+P34903).
T1 construct: expressed in transfected cells
As to the kind of experiment: Radioligand binding, membranes of stably transfected cells.

The test system of series [3] is rats. As to the kind of experiment: Pro-convulsant testing, chronic treatment, PTZ infusion. In kind it is in vivo, rat. To be noted: 0.1, 0.3, 1.0 mg/kg IP, 24 doses, final dose 48 h before testing. As for the experimental part:
The rats used in this study received chronic treatment with FG 8094 during a MWM experiment. The rats were dosed IP once per day (Monday to Friday) and received a total of 24 doses. Following each drug administration rats were tested in a MWM and received the final dose of drug 48 h prior to convulsant testing. The subjects were assigned to one of four treatment groups (n=8) and given either Vehicle, 0.1, 0.3, or 1.0 mg/kg of FG 8094.
On the day of proconvulsant testing, the rats were restrained and pentylenetetrazole (PTZ, 40.0 mg/ml) was infused as described above. The latency(s) to both clonic and tonic (full extension) convulsion was recorded. Latency data were transformed to yield the dose of PTZ needed to reach the threshold of both clonic and tonic seizures.

The next series has as its target α1β3γ2 (Homo sapiens, UniProt P14867+P18507). As to the kind of experiment: biochemical.
Another series has as its system Spinal cord (α2/3). As to the kind of experiment: In vivo [3H]Ro 15-1788 binding, spinal cord. Conditions: for percentage inhibition of in vivo [3H]Ro 15-1788 binding, spinal cord: 30 min, mean±SEM, relative to vehicle. How it is done: (§1) The in vivo binding of [^3H]Ro 15-1788 to mouse brain was performed essentially as described by Goeders and Kuhar (1985). Male Swiss-Webster mice received a 0.9% NaCl solution containing 50 mCi/kg of [^3H]Ro 15-1788 (0.05 ml/10 g of body weight) via the tail vein. […] Each mouse brain was then rapidly removed, homogenised in 5.0 ml of 50 mM Tris HCl, 5.0 mM EDTA, pH 7.4 at 4° C. using an ultra-turrax homogeniser for 10 s at setting 5. In a separate series of experiments different brain regions, selected for their preferential expression of particular GABA subtypes were also examined. Binding of [^3H]Ro 15-1788 to cerebellum is almost exclusively α1-like (Quirk et al, 1994), whereas binding to spinal cord is indicative of binding to receptors containing α2 or α3-subtypes, α1, α4 and α5 are rare or absent in this region (Wisden et al, 1992). Brains were rapidly dissected into forebrain and cerebellum and the spinal cord was also removed. Each forebrain was homogenised in 4.0 ml of buffer (approximately 14 ml/g wet weight of tissue), each cerebellum was homogenised in 1.0 ml of buffer (approximately 14 ml/g wet weight of tissue) and each spinal cord in 1.0 ml of buffer (approximately […] wet weight of tissue). Volumes ([…]) of homogenate were filtered rapidly through GF/B filters, washed with 2×5.0 ml volumes of ice-cold buffer and the residual radioactivity was counted by liquid scintillation spectroscopy.
(§2) Mice were injected intraperitoneally with FG 8094, 10 mg/kg or 1 mg/kg, 30 minutes prior to sacrifice and [^3H]Ro 15-1788 (0.1 mCi/g). Brain regions were dissected, homogenised and filtered as described in methods.

Series [4] relates to benzodiazepine binding site of α2/3-containing GABA receptors. As to the kind of experiment: In vivo [3H]Ro 15-1788 binding, spinal cord. To be noted: male, Swiss-Webster, mouse, in vivo, 1 mg/kg. As for the experimental part:
as §1, §2

The next series concerns α5-containing receptors. As to the kind of experiment: Occupancy of α5-containing receptors calculated by Clarke's equation. In kind it is in vivo, mouse. As for the experimental part: If it is assumed that the percentage inhibition of in vivo [^3H]Ro 15-1788 binding is a measure of receptor occupancy then the concentration at the receptor site in brain can be calculated according to Clarke's equation (occupancy=[drug]/[drug]+Ki). Substituting the occupancy determined at α1 and α2/3-containing receptors, the concentration of FG 8094 available at BZ binding sites in […] is 7.8 nM and 13.2 nM respectively. Occupancy at α5-containing receptors cannot be measured directly because of the low abundance of the receptor, but it can be calculated using the concentration of drug and binding affinity using Clarke's equation. This predicts 95-97 % occupancy of α5-containing receptors 30 min after administration of FG 8094 (1 mg/kg).

The target of a further series is T2, α2β3γ2 (Homo sapiens, UniProt P18507+P47869).
T2 construct: expressed in transfected cells
As to the kind of experiment: Radioligand binding, membranes of stably transfected cells.

Another series deals with male Sprague Dawley rats. As to the kind of experiment: Pro-convulsant testing, acute treatment, PTZ infusion. In kind it is in vivo, rat. Conditions: 0.5-4.0 mg/kg IP 30 min prior to PTZ infusion. As for the experimental part: Sixty naive male Sprague Dawley rats (225-265 g) housed in groups of four with food and water freely available, served as subjects. The rats were assigned to one of six groups and given: Vehicle or 0.5, 1.0, 2.0, 4.0 mg/kg of […] or 10.0 mg/kg of the non-selective receptor inverse agonist, CGS 8216, a known pro-convulsant agent. Vehicle, FG 8094 or CGS 8216 was administered IP 30 min prior to an infusion of the convulsant, pentylenetetrazole (PTZ, 40 mg/ml). PTZ was infused into the tail vein of the rat at the rate of 1.0 ml/min. The latency to clonic and tonic seizure were recorded and the threshold to each was calculated using the equation: Threshold dose=infusion rate (ml/s)×PTZ (mg/ml)×(1000/rats weight)×latency(s).

Series [5] concerns non-α5 subtype containing GABA-A receptors. As to the kind of experiment: In vivo [3H]Ro 15-1788 binding after pellet implantation. On the set-up: species or system rat. Conditions: SC pellet.

Sequence of α5 subtype containing GABA-A receptors (P19969 32-464 limits assumed): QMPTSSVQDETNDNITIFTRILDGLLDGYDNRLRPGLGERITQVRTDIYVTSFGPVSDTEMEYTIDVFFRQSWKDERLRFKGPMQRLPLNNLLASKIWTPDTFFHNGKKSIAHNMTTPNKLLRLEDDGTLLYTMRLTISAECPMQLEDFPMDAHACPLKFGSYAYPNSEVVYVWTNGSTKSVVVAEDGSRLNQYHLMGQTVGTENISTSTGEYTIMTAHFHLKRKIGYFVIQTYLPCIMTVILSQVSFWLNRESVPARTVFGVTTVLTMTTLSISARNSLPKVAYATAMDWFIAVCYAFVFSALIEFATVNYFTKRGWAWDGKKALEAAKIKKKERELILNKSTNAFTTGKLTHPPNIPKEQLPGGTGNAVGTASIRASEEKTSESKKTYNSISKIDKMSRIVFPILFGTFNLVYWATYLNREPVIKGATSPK
Sequence of α5 subtype containing GABA-A receptors (P18508 39-466): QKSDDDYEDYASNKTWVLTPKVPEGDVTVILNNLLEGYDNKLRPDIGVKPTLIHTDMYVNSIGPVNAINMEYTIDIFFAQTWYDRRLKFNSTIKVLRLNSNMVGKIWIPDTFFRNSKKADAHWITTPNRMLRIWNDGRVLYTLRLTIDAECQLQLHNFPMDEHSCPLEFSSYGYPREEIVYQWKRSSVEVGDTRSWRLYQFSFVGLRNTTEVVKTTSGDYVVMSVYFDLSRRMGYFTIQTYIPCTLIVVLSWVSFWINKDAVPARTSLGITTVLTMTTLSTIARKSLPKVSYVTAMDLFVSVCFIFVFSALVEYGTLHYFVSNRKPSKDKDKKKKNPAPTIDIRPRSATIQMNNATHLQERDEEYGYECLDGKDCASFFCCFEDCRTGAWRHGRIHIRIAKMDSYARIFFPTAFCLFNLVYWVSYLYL
Sequence of α5 subtype containing GABA-A receptors (P63079 26-473 partner): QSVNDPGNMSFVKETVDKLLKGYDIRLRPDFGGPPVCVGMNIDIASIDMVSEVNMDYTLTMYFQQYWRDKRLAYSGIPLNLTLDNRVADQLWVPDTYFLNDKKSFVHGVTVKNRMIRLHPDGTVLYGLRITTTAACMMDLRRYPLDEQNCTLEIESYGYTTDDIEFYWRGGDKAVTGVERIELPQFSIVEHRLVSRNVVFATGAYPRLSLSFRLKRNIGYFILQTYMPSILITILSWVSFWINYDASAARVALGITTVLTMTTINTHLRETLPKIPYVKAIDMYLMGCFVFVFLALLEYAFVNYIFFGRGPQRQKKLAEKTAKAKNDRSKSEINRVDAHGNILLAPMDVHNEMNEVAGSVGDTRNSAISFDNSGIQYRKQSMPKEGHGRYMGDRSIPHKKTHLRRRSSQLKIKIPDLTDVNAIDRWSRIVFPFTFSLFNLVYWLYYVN
Sequence of α1β3γ2 (P14867 28-456): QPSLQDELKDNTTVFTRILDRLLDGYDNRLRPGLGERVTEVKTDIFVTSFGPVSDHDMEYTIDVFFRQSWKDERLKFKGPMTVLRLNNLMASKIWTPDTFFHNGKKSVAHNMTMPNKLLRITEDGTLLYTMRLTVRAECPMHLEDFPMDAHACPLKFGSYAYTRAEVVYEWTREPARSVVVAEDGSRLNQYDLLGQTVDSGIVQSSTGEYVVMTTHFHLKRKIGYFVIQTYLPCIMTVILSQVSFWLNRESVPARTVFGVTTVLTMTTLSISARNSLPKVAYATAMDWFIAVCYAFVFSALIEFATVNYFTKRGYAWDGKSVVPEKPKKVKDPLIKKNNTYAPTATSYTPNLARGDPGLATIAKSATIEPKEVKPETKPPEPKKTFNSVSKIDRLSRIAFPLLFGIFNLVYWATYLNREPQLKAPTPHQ
Sequence of α1β3γ2 (P28472 26-473 partner): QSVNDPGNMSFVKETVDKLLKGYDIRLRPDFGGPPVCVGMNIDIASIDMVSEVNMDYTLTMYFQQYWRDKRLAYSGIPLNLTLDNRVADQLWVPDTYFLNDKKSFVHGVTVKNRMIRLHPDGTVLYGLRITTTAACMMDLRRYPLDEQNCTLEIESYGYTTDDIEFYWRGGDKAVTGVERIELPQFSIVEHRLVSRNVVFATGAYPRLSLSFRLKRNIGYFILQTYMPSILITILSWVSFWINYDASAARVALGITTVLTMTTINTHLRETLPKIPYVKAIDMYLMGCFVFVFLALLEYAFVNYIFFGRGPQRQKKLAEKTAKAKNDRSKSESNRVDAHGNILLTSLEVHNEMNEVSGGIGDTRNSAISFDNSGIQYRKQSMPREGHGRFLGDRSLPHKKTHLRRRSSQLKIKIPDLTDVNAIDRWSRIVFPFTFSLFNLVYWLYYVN
Sequence of α1β3γ2 (P18507 40-467 isoform P18507-1 limits assumed): as the sequence (P18508 39-466) above
T2 sequence (P47869 29-451): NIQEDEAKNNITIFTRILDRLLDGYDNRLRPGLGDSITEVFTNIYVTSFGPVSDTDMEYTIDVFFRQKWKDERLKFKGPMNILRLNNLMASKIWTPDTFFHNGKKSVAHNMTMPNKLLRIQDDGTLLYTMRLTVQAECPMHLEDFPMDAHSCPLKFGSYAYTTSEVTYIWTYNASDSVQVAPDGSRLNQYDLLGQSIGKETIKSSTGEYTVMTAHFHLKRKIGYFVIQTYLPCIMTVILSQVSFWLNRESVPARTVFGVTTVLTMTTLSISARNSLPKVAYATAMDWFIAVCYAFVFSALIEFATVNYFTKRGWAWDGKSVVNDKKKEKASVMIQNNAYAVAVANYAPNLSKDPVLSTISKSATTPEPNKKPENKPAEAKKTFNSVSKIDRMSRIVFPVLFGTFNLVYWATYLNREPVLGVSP
T2 sequence (P28472 26-473 partner): as the sequence (P28472 26-473 partner) above
T2 sequence (P18507 40-467 isoform P18507-1 limits assumed): as the sequence (P18508 39-466) above
T1 sequence (P34903 29-492): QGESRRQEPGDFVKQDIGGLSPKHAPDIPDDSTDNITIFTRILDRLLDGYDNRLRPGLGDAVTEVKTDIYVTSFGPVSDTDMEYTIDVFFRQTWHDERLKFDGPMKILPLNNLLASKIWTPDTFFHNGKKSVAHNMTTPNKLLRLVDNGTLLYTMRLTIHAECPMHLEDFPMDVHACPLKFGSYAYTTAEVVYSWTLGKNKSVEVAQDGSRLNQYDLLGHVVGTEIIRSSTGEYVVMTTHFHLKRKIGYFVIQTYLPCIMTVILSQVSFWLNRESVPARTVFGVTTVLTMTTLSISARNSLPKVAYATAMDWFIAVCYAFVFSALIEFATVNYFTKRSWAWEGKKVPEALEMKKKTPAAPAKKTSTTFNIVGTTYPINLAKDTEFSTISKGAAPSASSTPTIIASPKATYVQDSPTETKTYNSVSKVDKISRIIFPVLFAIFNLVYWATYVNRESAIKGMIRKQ
T1 sequence (P28472 26-473 partner): as the sequence (P28472 26-473 partner) above
T1 sequence (P18507 40-467 isoform P18507-1 limits assumed): as the sequence (P18508 39-466) above
Description for α1β3γ2: Radioligand binding studies were carried out using membranes prepared from cells stably transfected with the following subunit combinations:—α1β3γ2, α2β3γ2, α3β3γ2, α5β3γ2, α6β3γ2. Incubations were carried out using 20-100 mg of membrane protein in a total volume of 0.5 ml in 10 mM Tris-HCl, 1 mM EDTA pH 7.4 for one hour at room temperature prior to termination through Whatman GF/C filters followed by 3×3 ml washes with 5 mM Tris-HCl pH 7.5 and scintillation counting. […] Ki values were calculated according to the Cheng-Prussof equation.
Ki values were calculated according to the Cheng-Prussof equation. Data shown are mean±SEM values for 3-6 determinations.

As a reminder, the Ki is a measure of affinity in units of concentration, obtained from inhibition or displacement. `CCOC(=O)c1ncn2c1[C@@H]1CCCN1C(=O)c1cc(OC)ccc1-2` [FG 8094, 9H-imidazo[1,5-a]pyrrolo[2,1-C][1,4]benzodiazepine-1-carboxylic acid, 11, 12, 13, 13a-tetrahydro-7-methoxy-9-oxo-, ethyl ester, (S)-(9CI)]: the “percentage inhibition of in vivo [3H]Ro 15-1788 binding, forebrain” value with Forebrain (all α) (1 mg/kg ip) is 8.3 ± 3.2; in the series on Forebrain (all α) (10 mg/kg ip), 53.3 ± 4.2. For the same compound, in the series on rats [1] (SC pellet), the convulsions or sedation entry was “did not cause convulsions or sedation”. In addition, the watermaze performance result with rats [1] (pellet implanted SC 2 hrs before, training on one day) is listed as “improved performance”. Besides, in the series with GABAA receptors (10.0 mg/kg intraperitoneally, p<0.05), the “displacement of [3H]Ro 15-1788 binding, whole brain” value is reported as “significantly displaced”. In addition, the “displacement of specific [3H]Ro 15-1788 binding, whole brain” value with GABAA receptors (intraperitoneally at doses of up to 3.0 mg/kg) was “did not significantly displace”. For the same compound, in series [2], the “occupancy of α5 subtype containing GABA-A receptors in the brain” value is “approximately 85%”. For the same compound, the Ki at α3β3γ2 came out at 24.5 ± 2 nM; on α1β3γ2, 48.5 ± 6 nM; at α2β3γ2 it was 27.4 ± 2.5 nM. Also, in the series on rats [3], the “threshold dose of PTZ to clonic or tonic seizure” value was “no significant effect of treatment”. The “occupancy of α2/3 receptors” value in the series with Spinal cord (α2/3) (1.0 mg/kg) is “less than 35%”. Besides, the “percentage inhibition of in vivo [3H]Ro 15-1788 binding, spinal cord” value with Spinal cord (α2/3) (1 mg/kg ip) was 33.8 ± 7.4; in the series on Spinal cord (α2/3) (10 mg/kg ip) it was 74.2 ± 3.8. Moreover, in series [4], the concentration at 30 min amounted to 13.2 nM. The “occupancy of α5-containing receptors” value in the series on α5-containing receptors (1.0 mg/kg) is “virtually all”. The “predicted occupancy of α5-containing receptors” value with α5-containing receptors (30 min after 1 mg/kg, Clarke's equation) is recorded as 95-97%. Further, the pro-convulsant effects entry in the series with male Sprague Dawley rats is reported as “devoid of pro-convulsant effects”. Moreover, the “occupancy of non-α5 subtype containing GABA-A receptors” value in series [5] is “did not significantly occupy”.
